Measured values from patent publication US6083981A, “Sulfonamide substituted aspartic acid interleukin-1β converting enzyme inhibitors” (Warner-Lambert Company, priority 1999, dated 2000).

Columns and labels:
ICE [1] = target: T1, ICE (Homo sapiens, UniProt P29466); assay: ICE inhibition, fluorometric Ki (Ac-Tyr-Val-Ala-Asp-AMC substrate); type: biochemical; details: 0.24 nM ICE, 15 μM Ac-Tyr-Val-Ala-Asp-AMC, reversible competitive model
T1 sequence (P29466 120-297 limits assumed): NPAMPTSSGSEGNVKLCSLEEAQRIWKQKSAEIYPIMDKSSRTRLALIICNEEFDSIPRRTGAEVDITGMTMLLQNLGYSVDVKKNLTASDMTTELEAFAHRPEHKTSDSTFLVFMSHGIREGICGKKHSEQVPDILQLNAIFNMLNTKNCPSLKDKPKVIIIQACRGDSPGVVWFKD
T1 sequence (P29466 317-404 limits assumed): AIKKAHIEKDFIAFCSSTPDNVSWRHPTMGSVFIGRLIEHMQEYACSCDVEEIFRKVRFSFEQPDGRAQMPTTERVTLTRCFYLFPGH
Protocol: Substrate hydrolysis is monitored for 300 seconds by observing the fluorescence of released AMC using excitation at 380 nm and emission at 460 nm. Mean rates of substrate hydrolysis are evaluated by linear-regression analysis of the fluorescence vs time traces.

ICE [2] = target: T1, ICE; assay: ICE Colorimetric Dose-Response (IC50) Assay; type: biochemical; details: 24 nM ICE, 60 min preincubation, 50 μM Ac-Tyr-Val-Ala-Asp-pNA, pH 7.5, 25° C
Protocol: Aliquots of each dilution are transferred to a microtitre plate in triplicate.
(§1) ICE enzyme is diluted to approximately 24 nM in HGE buffer (100 mM Hepes pH 7.5, 0.5 mM EDTA, 20% glycerol, 0.1% Bovine Serum Albumin (BSA), and activated by adding dithiothreitol (DTT) to a final concentration of 5 mM. The activated enzyme is then aliquoted into wells containing inhibitor or vehicle, and the plate is preincubated for 60 minutes at ambient temperature. Substrate (Ac--Tyr--Val--Ala--Asp--pNA) is added to each well to a final concentration of 50 μM, and plates are placed in the microtitre plate-reader thermostated to 25° C. Beginning 5 minutes after addition of substrate, absorbance (405 nm) of wells is monitored for 1 hour, and activity is calculated as the mean rate of change in absorbance during this interval.

[3] = system: IL-1β production in human peripheral blood mononuclear cells (PBMCs); assay: PBMC Cellular Assay, inhibition of LPS-stimulated IL-1β production; type: cell-based; details: PBMC; mature IL-1β by ELISA, 10 ng/mL LPS overnight, 2% human AB serum
From the text: (§2) Further evidence that compounds of Formula I, II, and III are inhibitors of ICE is provided by their ability to inhibit IL-1β production in human peripheral blood mononuclear cells (PBMCs) as described herein. PBMCs are isolated from heparinized blood by centrifugation over a ficoll cushion, then washed three times with phosphate-buffered saline. PBMCs are suspended in a medium containing RPMI 1640 with glutamine, penicillin, streptomycin, and 2% human AB serum, then plated at 10^6 cells per well in 96 well flat bottom plates. PBMCs are stimulated overnight with 10 ng/mL of lipopolysaccharide (LPS, E. Coli strain 0111:B4; Calbiochem) in the presence or absence of a compound of Formula I. Medium is harvested and the level of mature IL-1β was determined using an ELISA kit from R & D Systems. Compound inhibition is assessed by determining the concentration of agent which reduces IL-1β levels by 50%. Cells were cultured for an additional four hours in the presence of 3-(4,5-dimethylthiazol-2-yl)-2,5-diphenyltetrazolium bromide (MTT) to determine viability. Compound toxicity can, therefore, be assessed by determining the concentration of agent which kills 50% of the cells (IC50).

[4] = PBMC viability (MTT), compound toxicity; type: cell-based; details: human, MTT viability, additional four hours, concentration which kills 50% of the cells, read-out: PBMC TC50
From the text: as §2

Ich-2 (Caspase-4) = target: T2, Ich-2 (Caspase-4) (Homo sapiens, UniProt P49662); assay: Ich-2 (Caspase-4) Colorimetric Dose-Response (IC50) Assay; type: biochemical; details: 64 nM enzyme, 60 μM Ac-Leu-Glu-Val-Asp-pNA
T2 sequence (P49662 81-270 limits assumed): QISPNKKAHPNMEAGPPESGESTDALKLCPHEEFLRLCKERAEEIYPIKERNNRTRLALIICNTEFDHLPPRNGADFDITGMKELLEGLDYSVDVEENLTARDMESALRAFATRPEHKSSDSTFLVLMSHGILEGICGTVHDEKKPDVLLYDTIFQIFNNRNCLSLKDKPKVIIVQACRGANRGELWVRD
T2 sequence (P49662 290-377 limits assumed): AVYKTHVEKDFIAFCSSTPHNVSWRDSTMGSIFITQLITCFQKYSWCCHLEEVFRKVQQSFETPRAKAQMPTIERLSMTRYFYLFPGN
Protocol: as §1
Inhibition of Ich-2 enzyme is assayed as described above for ICE, except that enzyme is used at 64 nM, and 60 μM of the Ich-2-specific substrate Ac--Leu--Glu--Val--Asp--pNA is used instead of the ICE substrate Ac--Tyr--Val--Ala--Asp--pNA.

Molecule	Ki (ICE [1]) [µM]	IC50 (ICE [2]) [µM]	IC50 [3] [µM]	CC50 [4] [µM]	IC50 (Ich-2 (Caspase-4)) [µM]
CCCCC(C)c1ccc(Oc2ccccc2S(=O)(=O)NC(C=O)CC(=O)O)cc1 (stereo not shown) [Example 21, 3-{2-[4-(1-Methyl-Pentyl)-Phenoxy]-Benzenesulfonylamino}-4-Oxo-Butyric Acid]	0.6	6.1	33	70	31
Cc1ccccc1-c1ccccc1S(=O)(=O)NC(C=O)CC(=O)O (stereo not shown) [Example 32, 3-(2'-Methyl-Biphenyl-2-Sulfonylamino)-4-Oxo-Butyric Acid]	7	28	–	–	603
O=CC(CC(=O)O)NS(=O)(=O)c1ccccc1OCCc1cccc2ccccc12 (stereo not shown) [Example 31]	0.062	0.4	8	> 100	2.3
CCC(C)c1ccc(Oc2ccccc2S(=O)(=O)NC(C=O)CC(=O)O)cc1C (stereo not shown) [Example 28, 3-[2-(4-Sec-Butyl-3-Methyl-Phenoxy)-Benzenesulfonylamino]-4-Oxo-Butyric Acid]	0.1	1	18	> 100	4.6
CC(C)c1cccc(Oc2ccccc2S(=O)(=O)N[C@H](C=O)CC(=O)O)c1 [Example 8, 3-[2-(3-lsopropyl-Phenoxy)-Benzenesulfonylamino]-4-Oxo-Butyric Acid]	0.41	3.7	45	> 100	6.1
Cc1cccc(S(=O)(=O)NC(C=O)CC(=O)O)c1-c1ccccc1 (stereo not shown) [Example 37, 3-(6-Methyl-Biphenyl-2-Sulfonylamino)-4-Oxo-Butyric Acid]	1.9	34	> 100	> 100	151
CCC(C)c1ccc(Oc2ccccc2S(=O)(=O)NC(C=O)CC(=O)O)cc1 (stereo not shown) [Example 19, 3-[2-(4-Sec-Butyl-Phenoxy)-Benzenesulfonylamino]-4-Oxo-Butyric Acid]	0.5	2.2	23	> 100	4
Cc1cccc(S(=O)(=O)NC(C=O)CC(=O)O)c1Oc1ccccc1 (stereo not shown) [Example 38, 3-(3-Methyl-2-Phenoxy-Benzenesulfonylamino)-4-Oxo-Butyric Acid]	0.67	11.2	85	> 100	76
O=CC(CC(=O)O)NS(=O)(=O)c1cccc2ccccc12 (stereo not shown) [Example 34, 3-(Naphthalene-1-Sulfonylamino)-4-Oxo-Butyric Acid]	31	110	–	–	602
Cc1cc(Oc2ccccc2S(=O)(=O)NC(C=O)CC(=O)O)ccc1C(C)C (stereo not shown) [Example 22, 3-[2-(4-Isopropyl-3-Methyl-Phenoxy)-Benzenesulfonylamino]-4-Oxo-Butyric Acid]	–	1	25	> 100	76
O=CC(CC(=O)O)NS(=O)(=O)c1ccccc1Sc1ccccc1 (stereo not shown) [Example 39, 4-Oxo-3-[2-Phenylthio-Benzenesulfonylamino]-Butyric Acid]	1.1	21	> 100	> 100	25
CCCC(C)C(=O)Nc1ccccc1S(=O)(=O)N[C@H](C=O)CC(=O)O (stereo partly shown) [Example 11, 3-[2-(2-Methyl-Pentanoylamino)-Benzenesulfonylamino]-4-Oxo-Butyric Acid]	17	55	–	–	569
O=CC(CC(=O)O)NS(=O)(=O)c1ccccc1OC1CCCCC1 (stereo not shown) [Example 14, 3-(2-Cyclohexyloxy-Benzenesulfonylamino)-4-Oxo-Butyric Acid]	2.3	20	90	> 100	35
O=CC(CC(=O)O)NS(=O)(=O)c1ccccc1CCc1ccccc1 (stereo not shown) [Example 13, 4-Oxo-3-(2-Phenethyl-Benzenesulfonylamino)-Butyric Acid]	7	32	–	–	167
O=CC(CC(=O)O)NS(=O)(=O)c1ccccc1[N+](=O)[O-] (stereo not shown) [Example 46, 3-(2-Nitro-Benzenesulfonylamino)-4-Oxo-Butyric Acid]	10	130	–	–	525
3-(2-Methylbutoxy-Benzenesulfonylamino)-4-Oxo-Butyric Acid [Example 30]	4.2	37	–	–	221
Cc1ccc(-c2ccccc2S(=O)(=O)NC(C=O)CC(=O)O)cc1 (stereo not shown) [Example 9, 3-(4'-Methyl-Biphenyl-2-Sulfonylamino)-4-Oxo-Butyric Acid]	6.4	66.2	–	–	109
Cc1cccc(Oc2ccccc2S(=O)(=O)N[C@H](C=O)CC(=O)O)c1 [Example 7, 4-Oxo-3-(2-m-Tolyloxy-Benzenesulfonylamino)-Butyric Acid]	–	10.8	67.5	> 100	33
Cc1ccc(Oc2ccccc2S(=O)(=O)N[C@H](C=O)CC(=O)O)cc1 [Example 5, 4-Oxo-3-(2-p-Tolyloxy-Benzenesulfonylamino)-Butyric Acid]	–	8.8	67.5	> 100	18
Cc1cc(Oc2ccccc2S(=O)(=O)NC(C=O)CC(=O)O)cc(C)c1C (stereo not shown) [Example 26, 4-Oxo-3-[2-(3,4,5-Trimethyl-Phenoxy)-Benzenesulfonylamino]-Butyric Acid]	–	7.8	58	> 100	23
O=CC(CC(=O)O)NS(=O)(=O)c1ccccc1-c1cccc2ccccc12 (stereo not shown) [Example 33, 3-(2-Naphthalen-1-yl-Benzenesulfonylamino)-4-Oxo-Butyric Acid]	7	–	–	–	77
O=C[C@H](CC(=O)O)NS(=O)(=O)c1ccccc1Cc1ccccc1 [Example 3, 3-(2-Benzyl-Benzenesulfonylamino)-4-Oxo-Butyric Acid]	3.7	37	–	–	70
O=C[C@H](CC(=O)O)NS(=O)(=O)c1ccccc1 [Example 2, 3-Benzenesulfonylamino-4-Oxo-Butyric Acid]	6.8	86.8	> 100	–	259
O=CC(CC(=O)O)NS(=O)(=O)c1ccccc1Oc1ccccc1 (stereo not shown) [Example 4, 4-Oxo-3-(2-Phenoxy-Benzenesulfonylamino)-Butyric Acid]	–	24	–	–	52
O=CC(CC(=O)O)NS(=O)(=O)c1ccccc1OCC1CCCO1 (stereo not shown) [Example 43, 4-Oxo-3-[2-(Tetrahydro-Furan-2-Ylmethoxy)-Benzenesulfonylamino]-Butyric Acid]	7.7	99	–	–	1970
CCC(CC)c1ccc(Oc2ccccc2S(=O)(=O)NC(C=O)CC(=O)O)cc1 (stereo not shown) [Example 25, 3-{2-[4-(1-Ethyl-Propyl)-Phenoxy]-Benzenesulfonylamino}-4-Oxo-Butyric Acid]	–	3.5	27	> 100	6.5
